# US11959486B2, “Stable liquid formulation of AMG 416 (etelcalcetide)” (AMGEN INC., priority 2013, dated 2024)
# Read-outs that look alike come from different tables or passages of the source.
# Key:
# [1] = 5 mg/mL
# Description: In this study, the effects of various pharmaceutical excipients on the stability of AMG 416 in liquid formulation were determined. A 10 mg/mL solution of AMG 416 and stock solutions of mannitol, glycine, arginine, NaCl and Na2SO4 at 2× isotonic concentrations were prepared. The pH of the AMG 416 solution and the five excipient solutions and deionized water separately were adjusted to pH 3.5 using HCl/NaOH. 500 μL aliquots of each of the six solutions were added to glass vials and 500 μL of the AMG 416 solution was added to the same vials and mixed well. This was performed in triplicate to provided eighteen sample vials, each containing 5 mg/mL AMG 416 and an isotonic concentration of the excipient (or deionized water). This was repeated with a set of solutions adjusted to pH 4.5, providing a further eighteen sample vials. The samples were incubated and removed for HPLC analysis at relevant time points.
# [2] = Concentration dependent stability in 25 mM succinate-buffered saline pH 4.5, HPLC purity, with Arrhenius extrapolation (Example 2); format: physicochemical; settings: for Degradation at 29 days, 40 C / Degradation at 29 days, RT: pH 4.5; for Predicted extent of degradation at 1 yr 5° C. / Predicted extent of degradation at 1 yr RT / Predicted extent of degradation at 2 yr 5° C. / Predicted extent of degradation at 2 yr RT: pH 4.5 SBS, from RT 29-day data
# Description: In this study, the stability of AMG 416 over a range of concentrations in succinate-buffered saline (pH 4.5) was investigated. The solution of […] AMG 416 from Example 1, supra, was diluted further with 200 μL of succinate-buffered saline (pH 4.5) to a nominal concentration of 200 mg/mL, which was serially diluted with succinate-buffered saline (pH 4.5) to 66, 20, 6.7, 2.2 and 0.67 mg/mL. The samples were kept at room temperature (i.e., about 25° C.) and aliquots were analyzed by HPLC at intervals up to 29 days. A second series of AMG 416 samples covering the concentration range 20 to 0.67 mg/mL were incubated at 40° C. and analyzed in the same manner.
# The room temperature 29-day data from Table 1 was extrapolated to the stated time period by assuming linear degradation kinetics. Room temperature data was extrapolated to 5° C. A 20° C. difference was assumed, equivalent to a 4-fold lower rate of degradation. Extrapolations were carried out using a simple application of the Arrhenius equation, where at 10° C. rise in temperature provides a 2-fold increase in reaction rate, assuming the same reaction mechanism and that activation energy for each relevant reaction is around 50 kJ/mol.
# Comparison of the data shown in Tables 1 and 2 allows assessment of temperature increase as a tool to predict the long-term stability of AMG 416 solutions.
# [3] = physchem; settings: succinate buffered saline, pH 4.5
# Description: In this study, the solubility of AMG 416 in succinate buffered-saline was investigated. […] After briefly vortexing, a clear solution was obtained with a nominal concentration of 400 mg/mL. Because expansion of the solution volume was not determined, the solubility of AMG 416 can be conservatively stated as at least 200 mg/mL. Although the maximal solubility was not determined in this experiment, AMG 416 is soluble in pH 4.5 succinate buffered saline to concentrations of at least 200 mg/mL.
smiles,measurement,setting,value
"CC(=O)N[C@H](CSSC[C@H](N)C(=O)O)C(=O)N[C@H](C)C(=O)N[C@H](CCCNC(=N)N)C(=O)N[C@H](CCCNC(=N)N)C(=O)N[C@H](CCCNC(=N)N)C(=O)N[C@H](C)C(=O)N[C@H](CCCNC(=N)N)C(N)=O [AMG 416, N-acetyl-D-cysteinyl-D-alanyl-D-arginyl-D-arginyl-D-arginyl-D-alanyl-D-arginamide disulfide with L-cysteine]",Extent of degradation at 56 days,"[1]; Arg, pH 3.5, 2-8° C.",0.0%
same,Extent of degradation at 56 days,"[1]; Arg, pH 3.5, 40° C.",28%
same,Extent of degradation at 56 days,"[1]; Arg, pH 3.5, RT",0.6%
same,Predicted extent of degradation After 2 Year Storage at Room Temperature,"[1]; Arg, pH 3.5, from 2-8° C. data",2%
same,Predicted extent of degradation After 2 Year Storage at Room Temperature,"[1]; Arg, pH 3.5, from 40° C. data",90%
same,Predicted extent of degradation After 2 Year Storage at Room Temperature,"[1]; Arg, pH 3.5, from RT data",7%
same,Extent of degradation at 56 days,"[1]; Arg, pH 4.5, 2-8° C.",0.5%
same,Extent of degradation at 56 days,"[1]; Arg, pH 4.5, 40° C.",67%
same,Extent of degradation at 56 days,"[1]; Arg, pH 4.5, RT",29%
same,Predicted extent of degradation After 2 Year Storage at Room Temperature,"[1]; Arg, pH 4.5, from 2-8° C. data",27%
same,Predicted extent of degradation After 2 Year Storage at Room Temperature,"[1]; Arg, pH 4.5, from 40° C. data",>100%
same,Predicted extent of degradation After 2 Year Storage at Room Temperature,"[1]; Arg, pH 4.5, from RT data",>100%
same,Extent of degradation at 56 days,"[1]; DI Water, pH 3.5, 2-8° C.",0.0%
same,Extent of degradation at 56 days,"[1]; DI Water, pH 3.5, 40° C.",8.2%
same,Extent of degradation at 56 days,"[1]; DI Water, pH 3.5, RT",1.0%
same,Predicted extent of degradation After 2 Year Storage at Room Temperature,"[1]; DI Water, pH 3.5, from 2-8° C. data",1%
same,Predicted extent of degradation After 2 Year Storage at Room Temperature,"[1]; DI Water, pH 3.5, from 40° C. data",27%
same,Predicted extent of degradation After 2 Year Storage at Room Temperature,"[1]; DI Water, pH 3.5, from RT data",13%
same,Extent of degradation at 56 days,"[1]; DI Water, pH 4.5, 2-8° C.",0.7%
same,Extent of degradation at 56 days,"[1]; DI Water, pH 4.5, 40° C.",24%
same,Extent of degradation at 56 days,"[1]; DI Water, pH 4.5, RT",3.6%
same,Predicted extent of degradation After 2 Year Storage at Room Temperature,"[1]; DI Water, pH 4.5, from 2-8° C. data",35%
same,Predicted extent of degradation After 2 Year Storage at Room Temperature,"[1]; DI Water, pH 4.5, from 40° C. data",77%
same,Predicted extent of degradation After 2 Year Storage at Room Temperature,"[1]; DI Water, pH 4.5, from RT data",47%
same,Extent of degradation at 56 days,"[1]; Gly, pH 3.5, 2-8° C.",0.0%
same,Extent of degradation at 56 days,"[1]; Gly, pH 3.5, 40° C.",17%
same,Extent of degradation at 56 days,"[1]; Gly, pH 3.5, RT",0.6%
same,Predicted extent of degradation After 2 Year Storage at Room Temperature,"[1]; Gly, pH 3.5, from 2-8° C. data",3%
same,Predicted extent of degradation After 2 Year Storage at Room Temperature,"[1]; Gly, pH 3.5, from 40° C. data",55%
same,Predicted extent of degradation After 2 Year Storage at Room Temperature,"[1]; Gly, pH 3.5, from RT data",8%
same,Extent of degradation at 56 days,"[1]; Gly, pH 4.5, 2-8° C.",0.6%
same,Extent of degradation at 56 days,"[1]; Gly, pH 4.5, 40° C.",28%
same,Extent of degradation at 56 days,"[1]; Gly, pH 4.5, RT",6.4%
same,Predicted extent of degradation After 2 Year Storage at Room Temperature,"[1]; Gly, pH 4.5, from 2-8° C. data",31%
same,Predicted extent of degradation After 2 Year Storage at Room Temperature,"[1]; Gly, pH 4.5, from 40° C. data",90%
same,Predicted extent of degradation After 2 Year Storage at Room Temperature,"[1]; Gly, pH 4.5, from RT data",83%
same,Extent of degradation at 56 days,"[1]; Mannitol, pH 3.5, 2-8° C.",0.0%
same,Extent of degradation at 56 days,"[1]; Mannitol, pH 3.5, 40° C.",4.9%
same,Extent of degradation at 56 days,"[1]; Mannitol, pH 3.5, RT",0.5%
same,Predicted extent of degradation After 2 Year Storage at Room Temperature,"[1]; Mannitol, pH 3.5, from 2-8° C. data",0%
same,Predicted extent of degradation After 2 Year Storage at Room Temperature,"[1]; Mannitol, pH 3.5, from 40° C. data",16%
same,Predicted extent of degradation After 2 Year Storage at Room Temperature,"[1]; Mannitol, pH 3.5, from RT data",7%
same,Extent of degradation at 56 days,"[1]; Mannitol, pH 4.5, 2-8° C.",0.5%
same,Extent of degradation at 56 days,"[1]; Mannitol, pH 4.5, 40° C.",23%
same,Extent of degradation at 56 days,"[1]; Mannitol, pH 4.5, RT",2.2%
same,Predicted extent of degradation After 2 Year Storage at Room Temperature,"[1]; Mannitol, pH 4.5, from 2-8° C. data",28%
same,Predicted extent of degradation After 2 Year Storage at Room Temperature,"[1]; Mannitol, pH 4.5, from 40° C. data",75%
same,Predicted extent of degradation After 2 Year Storage at Room Temperature,"[1]; Mannitol, pH 4.5, from RT data",28%
same,Extent of degradation at 56 days,"[1]; Na2SO4, pH 3.5, 2-8° C.",0.0%
same,Extent of degradation at 56 days,"[1]; Na2SO4, pH 3.5, 40° C.",9.4%
same,Extent of degradation at 56 days,"[1]; Na2SO4, pH 3.5, RT",0.4%
same,Predicted extent of degradation After 2 Year Storage at Room Temperature,"[1]; Na2SO4, pH 3.5, from 2-8° C. data",2%
same,Predicted extent of degradation After 2 Year Storage at Room Temperature,"[1]; Na2SO4, pH 3.5, from 40° C. data",31%
same,Predicted extent of degradation After 2 Year Storage at Room Temperature,"[1]; Na2SO4, pH 3.5, from RT data",5%
same,Extent of degradation at 56 days,"[1]; Na2SO4, pH 4.5, 2-8° C.",0.4%
same,Extent of degradation at 56 days,"[1]; Na2SO4, pH 4.5, 40° C.",30%
same,Extent of degradation at 56 days,"[1]; Na2SO4, pH 4.5, RT",51%
same,Predicted extent of degradation After 2 Year Storage at Room Temperature,"[1]; Na2SO4, pH 4.5, from 2-8° C. data",22%
same,Predicted extent of degradation After 2 Year Storage at Room Temperature,"[1]; Na2SO4, pH 4.5, from 40° C. data",98%
same,Predicted extent of degradation After 2 Year Storage at Room Temperature,"[1]; Na2SO4, pH 4.5, from RT data",>100%
same,Extent of degradation at 56 days,"[1]; NaCl, pH 3.5, 2-8° C.",0.1%
same,Extent of degradation at 56 days,"[1]; NaCl, pH 3.5, 40° C.",3.0%
same,Extent of degradation at 56 days,"[1]; NaCl, pH 3.5, RT",0.3%
same,Predicted extent of degradation After 2 Year Storage at Room Temperature,"[1]; NaCl, pH 3.5, from 2-8° C. data",4%
same,Predicted extent of degradation After 2 Year Storage at Room Temperature,"[1]; NaCl, pH 3.5, from 40° C. data",10%
same,Predicted extent of degradation After 2 Year Storage at Room Temperature,"[1]; NaCl, pH 3.5, from RT data",4%
same,Extent of degradation at 56 days,"[1]; NaCl, pH 4.5, 2-8° C.",1.1%
same,Extent of degradation at 56 days,"[1]; NaCl, pH 4.5, 40° C.",18%
same,Extent of degradation at 56 days,"[1]; NaCl, pH 4.5, RT",1.8%
same,Predicted extent of degradation After 2 Year Storage at Room Temperature,"[1]; NaCl, pH 4.5, from 2-8° C. data",56%
same,Predicted extent of degradation After 2 Year Storage at Room Temperature,"[1]; NaCl, pH 4.5, from 40° C. data",58%
same,Predicted extent of degradation After 2 Year Storage at Room Temperature,"[1]; NaCl, pH 4.5, from RT data",24%
same,"Degradation at 29 days, 40 C",[2]; 0.67 mg/mL,5.0%
same,"Degradation at 29 days, RT",[2]; 0.67 mg/mL,0.1%
same,Predicted extent of degradation at 1 yr 5° C.,[2]; 0.67 mg/mL,0.3%
same,Predicted extent of degradation at 1 yr RT,[2]; 0.67 mg/mL,1.4%
same,Predicted extent of degradation at 2 yr 5° C.,[2]; 0.67 mg/mL,0.7%
same,Predicted extent of degradation at 2 yr RT,[2]; 0.67 mg/mL,2.7%
same,"Degradation at 29 days, 40 C",[2]; 2.2 mg/mL,5.0%
same,"Degradation at 29 days, RT",[2]; 2.2 mg/mL,0.2%
same,Predicted extent of degradation at 1 yr 5° C.,[2]; 2.2 mg/mL,0.7%
same,Predicted extent of degradation at 1 yr RT,[2]; 2.2 mg/mL,2.6%
same,Predicted extent of degradation at 2 yr 5° C.,[2]; 2.2 mg/mL,1.3%
same,Predicted extent of degradation at 2 yr RT,[2]; 2.2 mg/mL,5.2%
same,"Degradation at 29 days, 40 C",[2]; 6.7 mg/mL,9.4%
same,"Degradation at 29 days, RT",[2]; 6.7 mg/mL,0.5%
same,Predicted extent of degradation at 1 yr 5° C.,[2]; 6.7 mg/mL,1.7%
same,Predicted extent of degradation at 1 yr RT,[2]; 6.7 mg/mL,7.0%
same,Predicted extent of degradation at 2 yr 5° C.,[2]; 6.7 mg/mL,3.5%
same,Predicted extent of degradation at 2 yr RT,[2]; 6.7 mg/mL,13.9%
same,"Degradation at 29 days, 40 C",[2]; 20 mg/mL,26.7%
same,"Degradation at 29 days, RT",[2]; 20 mg/mL,0.9%
same,Predicted extent of degradation at 1 yr 5° C.,[2]; 20 mg/mL,2.6%
same,Predicted extent of degradation at 1 yr RT,[2]; 20 mg/mL,10.4%
same,Predicted extent of degradation at 2 yr 5° C.,[2]; 20 mg/mL,5.2%
same,Predicted extent of degradation at 2 yr RT,[2]; 20 mg/mL,20.9%
same,Predicted extent of degradation at 1 yr 5° C.,[2]; 66 mg/mL,25.0%
same,Predicted extent of degradation at 1 yr RT,[2]; 66 mg/mL,>100%
same,Predicted extent of degradation at 2 yr 5° C.,[2]; 66 mg/mL,50.1%
same,Predicted extent of degradation at 2 yr RT,[2]; 66 mg/mL,>100%
same,solubility,[3],≥ 200 mg/mL
